In patent publication US10100341B2, “Tailored oils produced from recombinant oleaginous microorganisms” (Corbion Biotech, Inc., priority 2011, dated 2018):

Experiments:
[1] = tested on: Cyclotella cryptica; conditions: 50% artificial seawater medium, 100 ug/ml G418; cited from earlier work
[2] = tested on: Symbiodinium microadriacticum; conditions: 3 mg/ml G418; cited from earlier work
[3] = tested on: Amphidinium sp.; conditions: 3 mg/ml G418; cited from earlier work
[4] = tested on: Chlorella ellipsoidea; conditions: 30 ug/mL G418; cited from earlier work
[5] = tested on: Navicula saprophila; conditions: artificial seawater medium, 100 ug/ml G418; cited from earlier work
[6] = tested on: Prototheca moriformis; assay: Growth in thiamine-free medium (thiamine auxotrophy complementation); assay type: cell-based; conditions: 2 μM precursor
Description: Thiamine prototrophy in Prototheca moriformis cells was examined using expression of exogenous THIC genes. […] To dissect the lesion responsible for thiamine auxotrophy at the biochemical level, the growth of Prototheca moriformis cells under five different regimes were examined:(1) in the presence of 2 μM thiamine hydrochloride; (2) without thiamine; (3) without thiamine, but with 2 μM hydroxyethyl thiazole (THZ); […] To observe the thiamine auxotrophy of wildtype Prototheca moriformis cells, it was necessary to first deplete cells of internal thiamine reserves. To test growth in medium without thiamine, cells were first grown to stationary phase in medium containing 2 μM thiamine and then the cells were diluted to an optical density at 750 nm (OD750) of approximately 0.05 in medium without thiamine. The diluted cells were then grown once more to stationary phase in medium without thiamine (about 2-3 days). These thiamine-depleted cells were used to inoculate cultures for growth studies in medium without thiamine Wildtype cells were grown in medium with glucose as the carbon source (with or without thiamine) and positive clones with the native transit peptide Coccomyxa C-169 THIC construct were grown in medium with sucrose as the sole carbon source. […]

[7] = tested on: Dunaliella salina; conditions: 60 mg/L chloramphenicol; cited from earlier work
[8] = tested on: Haematococcus pluvialis; conditions: 5 μM norflurazon; cited from earlier work
[9] = tested on: Gonium pectorale; conditions: 0.06 ug/ml paromomycin; cited from earlier work
[10] = tested on: Chlamydomonas reinhardtii; conditions: 90 ug/ml spectinomycin; cited from earlier work
[11] = tested on: Rhodococcus opacus; conditions: 1 mg/ml thiostrepton; cited from earlier work
[12] = tested on: Phaeodactylum tricornutum; conditions: 50 ug/ml zeocin; cited from earlier work
[13] = tested on: Nannochloropsis sp. W2J3B; conditions: 2 ug/ml zeocin; cited from earlier work
[14] = tested on: Cylindrotheca fusiformis; conditions: 1 mg/ml zeocin; cited from earlier work
[15] = tested on: Volvox carteri; conditions: 1.5 ug/ml zeocin; cited from earlier work
[16] = tested on: Chaetoceros sp.; conditions: 500 ug/ml nourseothricin; cited from earlier work
[17] = tested on: Thalassiosira pseudonana; conditions: 10 ug/ml nourseothricin; cited from earlier work
[18] = tested on: Closterium peracerosum-strigosum-littorale complex; conditions: 3 ug/ml phleomycin; cited from earlier work
[19] = tested on: Dunaliella tertiolecta; conditions: 1 mg/L phleomycin; cited from earlier work
[20] = tested on: Prototheca moriformis (UTEX 1435); assay: cDNA abundance by real-time RT-PCR under nitrogen depletion; assay type: cell-based; conditions: after 24 hours of culture in low nitrogen medium
In short: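 Cells were grown 48 hours under nitrogen-replete conditions, and nitrogen in the medium was fully depleted after about 24 hours of culture. Reserved total RNA was reverse-transcribed and assayed by real-time RT-PCR with 68 cDNA-specific primer sets. The value is fold increase in cDNA abundance after 24 hours in low-nitrogen medium.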

[21] = tested on: Prototheca moriformis (UTEX 1435); assay: Steady state thioesterase mRNA level by real-time RT-PCR (promoter testing, normalized to cd189); conditions: low nitrogen medium

Molecule: CN[C@@H]1[C@@H](O)[C@@H](O[C@@H]2[C@@H](O)[C@H](O[C@H]3O[C@H]([C@@H](C)O)[C@@H](O)[C@H](O)[C@H]3N)[C@@H](N)C[C@H]2N)OC[C@]1(C)O [G418]
- propagation of untransformed cells in medium comprising the agent [1]: unable to propagate
- propagation of untransformed cells in medium comprising the agent [2]: unable to be propagated
- propagation of untransformed cells in medium comprising the agent [3]: unable to be propagated
- propagation of untransformed cells in medium comprising the agent [4]: unable to be propagated
- propagation of untransformed cells in medium comprising the agent [5]: unable to propagate

Molecule: Cc1ncc(CN)c(N)n1 [PYR, 2-methyl-4-amino-5-(aminomethyl)pyrimidine]
- thiamine pyrophosphate production / growth without thiamine with precursor [6]: can only produce thiamine pyrophosphate (TPP) if the PYR precursor is provided

Molecule: O=C(N[C@H](CO)[C@H](O)c1ccc([N+](=O)[O-])cc1)C(Cl)Cl [chloramphenicol]
- propagation of untransformed cells in medium comprising the agent [7]: unable to propagate

Molecule: CNc1cnn(-c2cccc(C(F)(F)F)c2)c(=O)c1Cl [norflurazon]
- propagation of untransformed cells in medium comprising the agent [8]: unable to propagate

Molecule: NC[C@@H]1O[C@H](O[C@H]2[C@@H](O)[C@H](O[C@@H]3[C@@H](O)[C@H](N)C[C@H](N)[C@H]3O[C@H]3O[C@H](CO)[C@@H](O)[C@H](O)[C@H]3N)O[C@@H]2CO)[C@H](N)[C@@H](O)[C@@H]1O [paromomycin]
- propagation of untransformed cells in medium comprising the agent [9]: unable to propagate

Molecule: CN[C@@H]1[C@H](O)[C@H](NC)[C@H]2O[C@@]3(O)C(=O)C[C@@H](C)O[C@H]3O[C@@H]2[C@H]1O [spectinomycin]
- propagation of untransformed cells in medium comprising the agent [10]: unable to propagate

Molecule: C=C(NC(=O)C(=C)NC(=O)c1csc(C2=N[C@@H]3c4csc(n4)[C@H]4NC(=O)c5csc(n5)[C@H]([C@](C)(O)[C@@H](C)O)NC(=O)[C@H]5CSC(=N5)/C(=C/C)NC(=O)[C@H]([C@@H](C)O)NC(=O)c5csc(n5)[C@]3(CC2)NC(=O)[C@H](C)NC(=O)C(=C)NC(=O)[C@H](C)NC(=O)[C@H]([C@@H](C)CC)N[C@@H]2C=Cc3c([C@H](C)O)cc(nc3[C@H]2O)C(=O)O[C@@H]4C)n1)C(N)=O [thiostrepton]
- propagation of untransformed cells in medium comprising the agent [11]: unable to propagate

Molecule: Cc1c(N)nc([C@H](CC(N)=O)NC[C@H](N)C(N)=O)nc1C(=O)N[C@H](C(=O)N[C@H](C)[C@@H](O)[C@H](C)C(=O)N[C@H](C(=O)NCCC1=N[C@@H](c2nc(C(=O)NCCCCN=C(N)N)cs2)CS1)[C@@H](C)O)[C@@H](O[C@@H]1O[C@@H](CO)[C@@H](O)[C@H](O)[C@@H]1O[C@H]1O[C@H](CO)[C@@H](O)[C@H](OC(N)=O)[C@@H]1O)c1cnc[nH]1 [zeocin]
- propagation of untransformed cells in medium comprising the agent [12]: unable to propagate
- propagation of untransformed cells in medium comprising the agent [13]: unable to propagate
- propagation of untransformed cells in medium comprising the agent [14]: unable to propagate
- propagation of untransformed cells in medium comprising the agent [15]: unable to be propagated

Molecule: nourseothricin
- propagation of untransformed cells in medium comprising the agent [16]: unable to propagate
- propagation of untransformed cells in medium comprising the agent [17]: unable to propagate

Molecule: phleomycin
- propagation of untransformed cells in medium comprising the agent [18]: unable to propagate
- propagation of untransformed cells in medium comprising the agent [19]: unable to be propagated

B1: Amt02-Ammonium transporter 02 promoter/5′UTR: putative nitrogen-regulated promoter/5′UTR, SEQ ID NO: 61 (nucleic acid, listed as Prototheca moriformis)
DNA: TCACCAGCGGACAAAGCACCGGTGTATCAGGTCCGTGTCATCCACTCTAAAGAGCTCGACTACGACCTACTGATGGCCCTAGATTCTTCATCAAAAACGCCTGAGACACTTGCCCAGGATTGAAACTCCCTGAAGGGACCACCAGGGGCCCTGAGTTGTTCCTTCCCCCCGTGGCGAGCTGCCAGCCAGGCTGTACCTGTGATCGGGGCTGGCGGGAAAACAGGCTTCGTGTGCTCAGGTTATGGGAGGTGCAGGACAGCTCATTAAACGCCAACAATCGCACAATTCATGGCAAGCTAATCAGTTATTTCCCATTAACGAGCTATAATTGTCCCAAAATTCTGGTCTACCGGGGGTGATCCTTCGTGTACGGGCCCTTCCCTCAACCCTAGGTATGCGCACATGCGGTCGCCGCGCAACGCGCGCGAGGGCCGAGGGTTTGGGACGGGCCGTCCCGAAATGCAGTTGCACCCGGATGCGTGGCACCTTTTTTGCGATAATTTATGCAATGGACTGCTCTGCAAAATTCTGGCTCTGTCGCCAACCCTAGGATCAGCGGTGTAGGATTTCGTAATCATTCGTCCTGATGGGGAGCTACCGACTGCCCTAGTATCAGCCCGACTGCCTGACGCCAGCGTCCACTTTTGTGCACACATTCCATTCGTGCCCAAGACATTTCATTGTGGTGCGAAGCGTCCCCAGTTACGCTCACCTGATCCCCAACCTCCTTATTGTTCTGTCGACAGAGTGGGCCCAGAGGCCGGTCGCAGCC
- Fold increased (cDNA abundance) [20]: 10.76
- steady state C. camphora thioesterase mRNA level relative to control (C. reinhardtii beta tubulin promoter) [21]: up to three
